Earlier results as cited in patent US20090241221A1, “TANDEM REAPEAT DNA CONSTRUCTS PRODUCING PROTEINS THAT ATTACK PLANT PATHOGENIC VIRUSES, FUNGI, AND BACTERIA BY DISRUPTING TRANSCRIPTION FACTORS ESSENTIAL FOR REPLICATION THEREOF IN PLANTS” (priority 2008, published 2009).

System: Magnaporthe grisea
Settings: PA treated plants; doses in the range of 0.5 mg/mL; cited from earlier work

Q: Which “resistance against M. grisea” value does the source give for `O=C(O)c1ccccn1` [picolinic acid, 2-pyridine carboxylic acid] here?
A: enhanced
